The IC50 is the concentration at which inhibition is half-maximal. By Ki is commonly meant the dissociation constant of the complex between target and ligand, obtained from inhibition or displacement.

15 compounds from ChEMBL document CHEMBL2086392, “Isomannide derivatives as new class of inhibitors for human kallikrein 7” (Bioorg Med Chem Lett, 2012) can be followed below.

Series [1] is described as follows: Solubility of the compound in 10% DMSO. The series is classed as physicochemical.
The target of series [2] is T1, Kallikrein-5 (Homo sapiens, UniProt Q9Y337).
T1 sequence (Q9Y337 whole entry): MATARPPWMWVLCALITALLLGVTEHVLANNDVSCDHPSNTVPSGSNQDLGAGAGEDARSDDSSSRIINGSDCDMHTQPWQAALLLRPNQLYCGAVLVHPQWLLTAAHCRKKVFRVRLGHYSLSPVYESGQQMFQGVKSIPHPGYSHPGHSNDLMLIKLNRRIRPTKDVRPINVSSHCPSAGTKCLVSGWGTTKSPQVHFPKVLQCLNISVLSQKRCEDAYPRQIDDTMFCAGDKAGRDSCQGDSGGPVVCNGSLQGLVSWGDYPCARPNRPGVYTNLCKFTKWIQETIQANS
In words: Inhibition of human recombinant KLK5 expressed in insect cell/baculovirus using Abz-KLYSSKQ-EDDnp as substrate by FRET analysis.

Series [3] has as its target T2, Kallikrein-7 (Homo sapiens, UniProt P49862). In words: Inhibition of human recombinant KLK7 expressed in insect cell/baculovirus using Abz-KLYSSKQ-EDDnp as substrate by FRET analysis.
Series [4] addresses T2, Kallikrein-7. In words: Competitive inhibition of recombinant human KLK7 expressed in insect cell/baculovirus using Abz-KLYSSKQ-EDDnp as substrate by Dixon plot analysis.
The target in series [5] is T1, Kallikrein-5. In words: Competitive inhibition of human KLK5 expressed in insect cell/baculovirus using Abz-KLYSSKQ-EDDnp as substrate by Dixon plot analysis.
Series [6] can be described thus: Solubility of the compound in aqueous buffer. Type of series: physicochemical.

Structures are written as SMILES. A value given as a limit tells only on which side of the number the result lay.

T2 sequence (P49862 whole entry): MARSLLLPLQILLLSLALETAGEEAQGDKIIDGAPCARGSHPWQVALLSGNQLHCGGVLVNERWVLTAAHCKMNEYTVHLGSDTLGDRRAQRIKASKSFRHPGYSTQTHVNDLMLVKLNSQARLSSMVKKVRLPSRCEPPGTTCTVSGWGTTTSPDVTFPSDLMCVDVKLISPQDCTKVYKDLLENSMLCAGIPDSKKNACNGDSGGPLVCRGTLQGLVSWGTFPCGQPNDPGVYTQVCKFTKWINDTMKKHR

For the compound `O=C(N[C@@H]1CO[C@H]2[C@@H]1OC[C@H]2OCc1ccccc1)/C(=C/c1ccccc1)NC(=O)c1ccccc1`, the solubility result in series [1] is given as “Insoluble”.
Turning to `O=C(N[C@@H]1CO[C@H]2[C@@H]1OC[C@H]2OCc1ccccc1)/C(=C/c1cc2ccccc2s1)NC(=O)c1ccccc1`, the solubility result in series [1] is recorded as “Insoluble”.
As for `O=C(N[C@@H]1CO[C@H]2[C@@H]1OC[C@H]2OCc1ccccc1)/C(=C/c1ccc2ccccc2c1)NC(=O)c1ccccc1`, the solubility entry in series [1] is recorded as “Insoluble”.
On the same count and under the same terms, with `O=C(N[C@@H]1CO[C@H]2[C@@H]1OC[C@H]2OCc1ccccc1)/C(=C/c1cc2ccccc2o1)NC(=O)c1ccccc1` the entry was “Insoluble”; with `O=C(N[C@@H]1CO[C@H]2[C@@H]1OC[C@H]2OCc1ccccc1)/C(=C/c1ccc(F)cc1)NC(=O)c1ccccc1` (stereo in doubt), “Insoluble”.
Still for that read-out and setting: with `O=C(N[C@@H]1CO[C@H]2[C@@H]1OC[C@H]2OCc1ccccc1)/C(=C/c1ccc(Cl)cc1)NC(=O)c1ccccc1` (stereo in doubt) the entry was “Insoluble”.
`O=C(N[C@@H]1CO[C@H]2[C@@H]1OC[C@H]2OCc1ccccc1)/C(=C/c1ccc(Br)cc1)NC(=O)c1ccccc1` (stereo in doubt): the solubility result in series [1] is “Insoluble”.
With `O=C(N[C@@H]1CO[C@H]2[C@@H]1OC[C@H]2OCc1ccccc1)/C(=C/c1ccc(C(F)(F)F)cc1)NC(=O)c1ccccc1` (stereo in doubt), the solubility entry in series [1] was “Insoluble”.
In the case of `COc1ccc(/C=C(\NC(=O)c2ccccc2)C(=O)N[C@@H]2CO[C@H]3[C@@H]2OC[C@H]3OCc2ccccc2)cc1` (stereo in doubt), the solubility entry in series [1] is “Insoluble”.
Consider `O=C(N[C@@H]1CO[C@H]2[C@@H]1OC[C@H]2OCc1ccccc1)/C(=C/c1cccs1)NC(=O)c1ccccc1` (stereo in doubt), for which the IC50 at Kallikrein-5 [2] came to 99.2 µM; on Kallikrein-7 [3] it was 13.3 µM. Moreover, the results for the inhibitory constant (Ki) at Kallikrein-7 [4] and on Kallikrein-5 [5] were 1.8 µM and 70.7 µM, respectively. Further, the solubility result in series [6] is “soluble”.
Turning to `O=C(N[C@@H]1CO[C@H]2[C@@H]1OC[C@H]2OCc1ccccc1)/C(=C/c1ccc2c(c1)OCO2)NC(=O)c1ccccc1` (stereo in doubt), the values for the concentration for half-maximal inhibition (IC50) on Kallikrein-5 [2] and on Kallikrein-7 [3] were over 1000 µM and 205 µM, respectively. Moreover, the Ki turned out to be 80.3 µM at Kallikrein-7 [4] and 357 µM at Kallikrein-5 [5]. Also, in series [6], the solubility result is “soluble”.
On the same counts, the results for `O=C(N[C@@H]1CO[C@H]2[C@@H]1OC[C@H]2OCc1ccccc1)/C(=C/c1cccnc1)NC(=O)c1ccccc1` (stereo in doubt) are 324 µM, 196 µM, 75.1 µM, 200 µM and “soluble”.
On to `O=C(N[C@@H]1CO[C@H]2[C@@H]1OC[C@H]2OCc1ccccc1)/C(=C/c1ccco1)NC(=O)c1ccccc1` (stereo in doubt), for which the IC50 at Kallikrein-5 [2] was determined as 99.1 µM; on Kallikrein-7 [3] it was 16.3 µM. The Ki at Kallikrein-7 [4] was 3 µM; on Kallikrein-5 [5], 70.4 µM. The solubility result in series [6] was “soluble”.
Consider `CC(=O)N/C(=C\c1cccs1)C(=O)N[C@@H]1CO[C@H]2[C@@H]1OC[C@H]2OCc1ccccc1` (stereo in doubt), for which the half-inhibitory concentration (IC50) on Kallikrein-5 [2] was found to be 101 µM; on Kallikrein-7 [3], 161 µM. The inhibitory constant (Ki) at Kallikrein-7 [4] worked out at 77.4 µM; at Kallikrein-5 [5], 71.9 µM. For the same compound, the solubility entry in series [6] was “soluble”.
With `O=C(N[C@@H]1CO[C@H]2[C@@H]1OC[C@H]2OCc1ccccc1)/C(=C/c1c[nH]c2ccccc12)NC(=O)c1ccccc1` (stereo in doubt), the solubility entry in series [1] is “Insoluble”.
